Counter-ions that a name gives are not always drawn. Like-named read-outs stand apart in the source and are kept apart here.
What was measured:
EGFR = target: T1, EGFR (Homo sapiens, UniProt P00533); experiment: EGFR in-cell Western (ICW) screening protocol (EGFR inhibition assay); format: cell-based; set-up: ICW 1 / ICW 2 / ICW Avg: unit not given here; settings: ICW assay; for ICW Avg: average of runs 1 and 2; for ICW 1: run 1; for ICW 2: run 2
T1 construct: host or cells: A431
Outline: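 In-cell Western read-out: fixed A431 cells were co-stained for total EGFR and phospho-EGFR (Tyr1173; some runs Tyr1045). Before fixation, cells were serum-starved for 2 h, exposed to compound for 4 h, then given EGF for 10 min, usually at 10 ng/ml final (6.6 or 12.5 ng/ml in some runs).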

MDBK line = experiment: MTT Cell Proliferation Assay, MDBK cells; format: cell-based, bovine; settings: MDBK cells, second value of cell, read-out: MTT Assay IC50(A431/MDBK): MDBK
Outline: (§1)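 Each concentration ran in quadruplicate across duplicate plates, with compounds serially diluted in DMSO and delivered at 0.5% DMSO in 0.5% FBS medium for 3 days.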

[1] = tested on: epithelial carcinoma A431 cell line; experiment: MTT Cell Proliferation Assay, A431 cells; format: cell-based; settings: for IC50: first value of cell, read-out: MTT Assay IC50(A431/MDBK): A431; for MTT Assay IC50(A431/MDBK): ratio in parentheses: ratio MDBK IC50 / A431 IC50 (selectivity)
Outline: as §1

[2] = Homo sapiens, A-431, A431 cells

T1 sequence (P00533 25-1210): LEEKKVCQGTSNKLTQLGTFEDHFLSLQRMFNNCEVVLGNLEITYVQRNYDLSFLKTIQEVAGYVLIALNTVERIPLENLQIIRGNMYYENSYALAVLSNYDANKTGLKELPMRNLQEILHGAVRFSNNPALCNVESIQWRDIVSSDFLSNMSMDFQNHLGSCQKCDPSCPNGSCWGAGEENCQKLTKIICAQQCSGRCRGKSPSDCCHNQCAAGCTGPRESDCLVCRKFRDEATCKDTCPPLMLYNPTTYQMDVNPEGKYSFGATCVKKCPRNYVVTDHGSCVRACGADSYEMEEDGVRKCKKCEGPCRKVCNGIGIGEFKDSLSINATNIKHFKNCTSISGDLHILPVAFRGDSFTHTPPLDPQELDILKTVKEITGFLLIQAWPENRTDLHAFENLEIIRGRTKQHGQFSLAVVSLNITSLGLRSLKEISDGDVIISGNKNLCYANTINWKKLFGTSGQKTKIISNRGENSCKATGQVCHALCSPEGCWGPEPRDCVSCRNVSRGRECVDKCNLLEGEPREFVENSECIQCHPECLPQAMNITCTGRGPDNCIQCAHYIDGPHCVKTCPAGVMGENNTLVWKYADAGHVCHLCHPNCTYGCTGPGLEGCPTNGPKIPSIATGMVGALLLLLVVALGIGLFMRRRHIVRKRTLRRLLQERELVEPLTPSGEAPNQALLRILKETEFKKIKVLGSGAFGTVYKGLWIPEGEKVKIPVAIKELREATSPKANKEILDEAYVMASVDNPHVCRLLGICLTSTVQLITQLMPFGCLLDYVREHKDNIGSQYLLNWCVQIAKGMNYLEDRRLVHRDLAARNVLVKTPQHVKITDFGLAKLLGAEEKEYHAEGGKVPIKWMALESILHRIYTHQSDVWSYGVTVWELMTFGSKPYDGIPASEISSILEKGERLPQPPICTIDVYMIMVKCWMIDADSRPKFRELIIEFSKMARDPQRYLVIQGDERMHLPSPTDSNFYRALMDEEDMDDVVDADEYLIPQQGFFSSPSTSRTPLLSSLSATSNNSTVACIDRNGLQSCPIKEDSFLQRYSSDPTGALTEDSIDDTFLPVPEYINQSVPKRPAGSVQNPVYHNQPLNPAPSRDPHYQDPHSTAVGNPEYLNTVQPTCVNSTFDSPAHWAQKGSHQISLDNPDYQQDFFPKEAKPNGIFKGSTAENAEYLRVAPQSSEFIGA

Structure (SMILES) | ICW Avg (EGFR) | ICW 1 (EGFR) | ICW 2 (EGFR) | IC50 [1, 2] | MTT Assay IC50(A431/MDBK): ratio in parentheses [1] | IC50 ([1]; A431 cells) | IC50 (MDBK line; Bos taurus, MDBK) | IC50 (MDBK line)
C=CCc1c(C)nc(Nc2nc(C)c3ccccc3n2)[nH]c1=O [12610 + TFA] | 31.33 | 41.25 | 21.42 | 50.4 µM | 0.39 |  | 19.6 µM | 
Cc1nc(Nc2nc(C)c3cccc(C)c3n2)[nH]c(=O)c1Cc1ccccc1 [12611 + TFA] | 45.72 | 52.69 | 38.76 | 5.32 µM | 1.00 |  | 5.31 µM | 
Cc1nc(Nc2nc(CSc3ccccn3)cc(=O)[nH]2)nc2ccccc12 [12623 + TFA] | 28.49 | 21.11 | 35.88 | 37.2 µM | 0.46 |  | 17 µM | 
CCCc1c(C)nc(Nc2nc(C)c3cccc(C)c3n2)[nH]c1=O [12625 + TFA] | 34.27 | 30.45 | 38.10 | 21.2 µM | 0.80 |  | 17 µM | 
Cc1ccc2nc(Nc3nc(=O)c(C)c(C)[nH]3)nc(C)c2c1 [12629 + TFA] | 25.89 | 19.83 | 31.95 | 12.7 µM | 0.85 |  | 10.7 µM | 
COCc1cc(=O)nc(Nc2nc(C)c3cc(C)cc(C)c3n2)[nH]1 [12644 + TFA] | 25.06 | 16.45 | 33.67 |  | 0.66 | 46.9 µM |  | 30.9 µM
Cc1cc(C)c2nc(Nc3nc(=O)c(C)c(C)[nH]3)nc(C)c2c1 [12645 + TFA] | 64.97 | 60.00 | 69.95 | 6.49 µM | 0.97 |  | 6.29 µM | 
CCCc1c[nH]c(Nc2nc(-c3ccccc3)c3cc(Cl)ccc3n2)nc1=O [12660 + TFA] | 61.63 | 49.87 | 73.40 | 41.5 µM | 0.99 |  | 41.1 µM | 
CCc1c(C)nc(Nc2nc(C)c3ccc(C)cc3n2)[nH]c1=O [12665 + TFA] | 44.17 | 51.06 | 37.29 |  | 0.98 | 17.5 µM |  | 17.2 µM
Cc1ccc2nc(Nc3nc(C)c(CCC(C)C)c(=O)[nH]3)nc(C)c2c1 [12666 + TFA] | 36.77 | 48.16 | 25.37 | 14.5 µM | 1.18 |  | 17.1 µM | 

Further lines, with some results ahead:

ICW Avg (EGFR) | ICW 1 (EGFR) | ICW 2 (EGFR) | IC50 [1, 2] | MTT Assay IC50(A431/MDBK): ratio in parentheses [1] | IC50 ([1]; A431 cells) | Structure (SMILES) | IC50 (MDBK line; Bos taurus, MDBK) | IC50 (MDBK line)
57.36 | 69.21 | 45.51 |  |  | 48.5 µM | CCCc1c(C)nc(Nc2nc(C)c3cc(C)cc(C)c3n2)[nH]c1=O [12612 + TFA] |  | 79.2 µM
27.21 | 20.34 | 34.09 | 19.4 µM | 0.39 |  | CCCc1c(C)nc(Nc2nc(C)c3cc(C)c(C)cc3n2)[nH]c1=O [12614 + TFA] | 7.56 µM | 
26.02 | 17.06 | 34.97 | 11.7 µM | 0.75 |  | Cc1cc2nc(Nc3nc(=O)c(C)c(C)[nH]3)nc(C)c2cc1C [12630 + TFA] | 8.75 µM | 
36.07 | 37.92 | 34.22 |  | 0.79 | 16 µM | CCCc1cc(=O)[nH]c(Nc2nc(C)c3cc(C)c(C)cc3n2)n1 [12654 + TFA] | 12.6 µM | 
25.42 | 11.73 | 39.10 | 49.3 µM | 0.74 |  | CCCc1cc(=O)[nH]c(Nc2nc(C)c3ccc(OC)cc3n2)n1 [12669 + TFA] | 36.7 µM | 
52.80 | 44.70 | 60.90 |  | 0.68 | 33.1 µM | CCCc1cc(=O)[nH]c(Nc2nc(C)c3cc(C)c(C)cc3n2)n1 [12673 + TFA] |  | 22.5 µM

From US20140179681A1, “METHODS AND COMPOSITIONS OF TARGETED DRUG DEVELOPMENT” (priority 2010, published 2014)
